{"source": "ChEMBL document CHEMBL3885861", "about": "“Open TG-GATES”", "organism": "Rattus norvegicus", "assay": "Open TG-GATES - Regimen: Daily Repeat", "assay_type": "toxicity, organism-based, Sprague-Dawley", "set-up": "regimen Daily Repeat, gender Male, age 6 weeks", "conditions": "in vivo, po, 3 mg/kg, route gavage, dose level Low; for APTT / Bas / Eos / Fbg / Hb / Ht / Lym / MCH / MCHC / MCV / Mono / Neu / PT / Plat / RBC / Ret / WBC: tissue Blood", "key": {"[1]": {"conditions": "72 h, tissue Kidney, time 3 day"}, "[2]": {"conditions": "72 h, tissue Plasma, time 3 day"}}}
{"smiles": "Cn1cnc([N+](=O)[O-])c1Sc1ncnc2nc[nH]c12", "note": "[AZATHIOPRINE]", "values": [{"measurement": "TERMINAL_BW", "setting": "72 h, time 3 day", "value": 215.2, "unit": "g"}, {"measurement": "APTT", "setting": "72 h, time 3 day", "value": 20.9, "unit": "s"}, {"measurement": "Bas", "setting": "72 h, time 3 day", "value": 0, "unit": "%"}, {"measurement": "Eos", "setting": "72 h, time 3 day", "value": 0.4, "unit": "%"}, {"measurement": "Fbg", "setting": "72 h, time 3 day", "value": 312.4, "unit": "mg/dL"}, {"measurement": "Hb", "setting": "72 h, time 3 day", "value": 13, "unit": "g/dL"}, {"measurement": "Ht", "setting": "72 h, time 3 day", "value": 38.6, "unit": "%"}, {"measurement": "Lym", "setting": "72 h, time 3 day", "value": 83.6, "unit": "%"}, {"measurement": "MCH", "setting": "72 h, time 3 day", "value": 22, "unit": "pg"}, {"measurement": "MCHC", "setting": "72 h, time 3 day", "value": 33.6, "unit": "%"}, {"measurement": "MCV", "setting": "72 h, time 3 day", "value": 65.4, "unit": "fL"}, {"measurement": "Mono", "setting": "72 h, time 3 day", "value": 1.8, "unit": "%"}, {"measurement": "Neu", "setting": "72 h, time 3 day", "value": 13, "unit": "%"}, {"measurement": "PT", "setting": "72 h, time 3 day", "value": 16.2, "unit": "s"}, {"measurement": "Plat", "setting": "72 h, time 3 day", "value": 125.6, "unit": "x10_4/uL"}, {"measurement": "RBC", "setting": "72 h, time 3 day", "value": 590, "unit": "x10_4/ul"}, {"measurement": "Ret", "setting": "72 h, time 3 day", "value": 7.5, "unit": "%"}, {"measurement": "WBC", "setting": "72 h, time 3 day", "value": 81.3, "unit": "x10_2/uL"}, {"measurement": "KIDNEY_L", "setting": "[1]", "value": 1, "unit": "g"}, {"measurement": "KIDNEY_R", "setting": "[1]", "value": 1, "unit": "g"}, {"measurement": "KIDNEY_TOTAL", "setting": "[1]", "value": 1.9, "unit": "g"}, {"measurement": "LIVER", "setting": "72 h, tissue Liver, time 3 day", "value": 10.5, "unit": "g"}, {"measurement": "A/G", "setting": "[2]", "value": 1.3}, {"measurement": "ALP", "setting": "[2]", "value": 1666, "unit": "IU/L"}, {"measurement": "ALT", "setting": "[2]", "value": 45, "unit": "IU/L"}, {"measurement": "AST", "setting": "[2]", "value": 73.2, "unit": "IU/L"}, {"measurement": "BUN", "setting": "[2]", "value": 17.6, "unit": "mg/dL"}, {"measurement": "CRE", "setting": "[2]", "value": 0.1, "unit": "mg/dL"}, {"measurement": "Ca", "setting": "[2]", "value": 11.3, "unit": "mg/dL"}, {"measurement": "Cl", "setting": "[2]", "value": 106.6, "unit": "meq/L"}, {"measurement": "DBIL", "setting": "[2]", "value": 0, "unit": "mg/dL"}, {"measurement": "GLC", "setting": "[2]", "value": 188.8, "unit": "mg/dL"}, {"measurement": "IP", "setting": "[2]", "value": 6.7, "unit": "mg/dL"}, {"measurement": "K", "setting": "[2]", "value": 4.4, "unit": "meq/L"}, {"measurement": "LDH", "setting": "[2]", "value": 192.8, "unit": "IU/L"}, {"measurement": "Na", "setting": "[2]", "value": 143.4, "unit": "meq/L"}, {"measurement": "PL", "setting": "[2]", "value": 142.8, "unit": "mg/dL"}, {"measurement": "RALB", "setting": "[2]", "value": 3.1, "unit": "g/dL"}, {"measurement": "TBIL", "setting": "[2]", "value": 0.008, "unit": "mg/dL"}, {"measurement": "TC", "setting": "[2]", "value": 73.8, "unit": "mg/dL"}, {"measurement": "TG", "setting": "[2]", "value": 85, "unit": "mg/dL"}, {"measurement": "TP", "setting": "[2]", "value": 5.6, "unit": "g/dL"}, {"measurement": "gamma-GTP", "setting": "[2]", "value": 1, "unit": "IU/L"}, {"measurement": "TERMINAL_BW", "setting": "[…], time 7 day", "value": 233.9, "unit": "g"}, {"measurement": "TERMINAL_BW", "setting": "[…], time 14 day", "value": 269.8, "unit": "g"}, {"measurement": "TERMINAL_BW", "setting": "[…], time 28 day", "value": 343.6, "unit": "g"}, {"measurement": "APTT", "setting": "[…], time 7 day", "value": 21.4, "unit": "s"}, {"measurement": "Bas", "setting": "[…], time 7 day", "value": 0, "unit": "%"}, {"measurement": "Eos", "setting": "[…], time 7 day", "value": 1, "unit": "%"}, {"measurement": "Fbg", "setting": "[…], time 7 day", "value": 312.6, "unit": "mg/dL"}, {"measurement": "Hb", "setting": "[…], time 7 day", "value": 14, "unit": "g/dL"}, {"measurement": "Ht", "setting": "[…], time 7 day", "value": 40.2, "unit": "%"}, {"measurement": "Lym", "setting": "[…], time 7 day", "value": 79, "unit": "%"}, {"measurement": "MCH", "setting": "[…], time 7 day", "value": 21.4, "unit": "pg"}, {"measurement": "MCHC", "setting": "[…], time 7 day", "value": 34.9, "unit": "%"}, {"measurement": "MCV", "setting": "[…], time 7 day", "value": 61.3, "unit": "fL"}, {"measurement": "Mono", "setting": "[…], time 7 day", "value": 2.2, "unit": "%"}, {"measurement": "Neu", "setting": "[…], time 7 day", "value": 17, "unit": "%"}, {"measurement": "PT", "setting": "[…], time 7 day", "value": 15.8, "unit": "s"}, {"measurement": "Plat", "setting": "[…], time 7 day", "value": 115.5, "unit": "x10_4/uL"}, {"measurement": "RBC", "setting": "[…], time 7 day", "value": 655.8, "unit": "x10_4/ul"}, {"measurement": "Ret", "setting": "[…], time 7 day", "value": 5.5, "unit": "%"}, {"measurement": "WBC", "setting": "[…], time 7 day", "value": 121.2, "unit": "x10_2/uL"}, {"measurement": "APTT", "setting": "[…], time 14 day", "value": 22.5, "unit": "s"}, {"measurement": "Bas", "setting": "[…], time 14 day", "value": 0, "unit": "%"}, {"measurement": "Eos", "setting": "[…], time 14 day", "value": 0.8, "unit": "%"}, {"measurement": "Fbg", "setting": "[…], time 14 day", "value": 325.2, "unit": "mg/dL"}, {"measurement": "Hb", "setting": "[…], time 14 day", "value": 14.6, "unit": "g/dL"}, {"measurement": "Ht", "setting": "[…], time 14 day", "value": 41, "unit": "%"}, {"measurement": "Lym", "setting": "[…], time 14 day", "value": 77.4, "unit": "%"}, {"measurement": "MCH", "setting": "[…], time 14 day", "value": 21.4, "unit": "pg"}, {"measurement": "MCHC", "setting": "[…], time 14 day", "value": 35.7, "unit": "%"}, {"measurement": "MCV", "setting": "[…], time 14 day", "value": 59.9, "unit": "fL"}, {"measurement": "Mono", "setting": "[…], time 14 day", "value": 1.8, "unit": "%"}, {"measurement": "Neu", "setting": "[…], time 14 day", "value": 19, "unit": "%"}, {"measurement": "PT", "setting": "[…], time 14 day", "value": 16.3, "unit": "s"}, {"measurement": "Plat", "setting": "[…], time 14 day", "value": 113.2, "unit": "x10_4/uL"}, {"measurement": "RBC", "setting": "[…], time 14 day", "value": 684.8, "unit": "x10_4/ul"}, {"measurement": "Ret", "setting": "[…], time 14 day", "value": 3.6, "unit": "%"}, {"measurement": "WBC", "setting": "[…], time 14 day", "value": 82.1, "unit": "x10_2/uL"}, {"measurement": "APTT", "setting": "[…], time 28 day", "value": 24.6, "unit": "s"}, {"measurement": "Bas", "setting": "[…], time 28 day", "value": 0, "unit": "%"}, {"measurement": "Eos", "setting": "[…], time 28 day", "value": 1, "unit": "%"}, {"measurement": "Fbg", "setting": "[…], time 28 day", "value": 302.2, "unit": "mg/dL"}, {"measurement": "Hb", "setting": "[…], time 28 day", "value": 14.6, "unit": "g/dL"}, {"measurement": "Ht", "setting": "[…], time 28 day", "value": 42.3, "unit": "%"}]}
